Assay results reported in patent publication US20120035247A1, “RNA Interference Mediated Inhibition of Signal Transducer and Activator of Transcription 6 (STAT6) Gene Expression Using Short Interfering Nucleic Acid (siNA)” (Merck Sharp & Dohme Corp., priority 2009, published 2012).
[invAb] = inverted abasic unit; m = 2'-O-methyl; r = 2'-OH (RNA); f = 2'-fluoro

Legend:
[1] = test system: human STAT4 mRNA transcript; experiment: STAT4 specificity screen in human A549 cells, STAT4 mRNA by quantitative RT-PCR; type: cell-based; conditions: three experiments, mean ± standard deviation
Experimental: A549 (human; ATCC cat# CCL-185): Cells were cultured at 37° C. in the presence of 5% CO2 and grown in Ham's F12K medium with 2 mM L-glutamine adjusted to contain 1.5 g/L sodium bicarbonate and supplemented with fetal bovine serum at a final concentration of 10%, 100 μg/mL of streptomycin, and 100 U/mL penicillin.
A series of probes and primers were used to detect the various mRNA transcripts of the genes of 13-Actin (human cell line only), and of STATE and GAPDH in mouse and human cell lines. All Taqman probes and primers for the experiments here-in described were supplied as pre-validated sets by Applied Biosystems, Inc. (see Table 2).
The assays were performed on an ABI 7900 instrument, according to the manufacturer's instructions. A TaqMan Gene Expression Master Mix (provided in the Cells-to-CTT™, Applied Biosystems, Cat #4399002) was used. The PCR reactions were carried out at 50° C. for 2 min, 95° C. for 20 min followed by 40 cycles at 95° C. for 15 secs and 60° C. for 1 min.
The expression level of the gene of interest and % knock-down was calculated using Comparative Ct method:
ΔΔCt=ΔCt(Target siNA)−ΔCt(NTC)
Relative expression level=2^−ΔΔCt
The non-targeting control siNA was, unless otherwise indicated, chosen as the value against which to calculate the % knock-down, because it is the most relevant control.
The siNAs from Table 4 were tested in human A549 cell line at a lower concentration (1 nM versus the original screening concentration of 10 nM) to determine the effect of the STATE siRNAs on the mRNA transcript of human STAT4.

STAT6 protein = experiment: STAT6 Western Blot after 6-well plate transfection of A549 cells; type: cell-based, human; conditions: STAT6 protein band density, 72 h post-transfection, average ±S.D., n = 3
Experimental: A549 cells were plated in 6-well plates at final counts of 70,000 cells/well in 2 ml of complete growth media. Transfection was performed using 2.5 uL of RNAiMax per well. Final concentration of siNAs was 30 nM (screen) and 30, 0.3, and 0.003 nM (dose response study). Protein lysates were harvested 24, 48, and 72 hours post-transfection (screen) and 72 hours post-transfection (dose response study). Protein lysates were prepared using Cell Extraction Buffer (Invitrogen, cat# FNN0011) according to manufacturer's instructions. Protein concentration was measured using a Bradford Quick Start Kit (Bio-Rad, cat#500-0205).
The protein source for the Western Blot experiments were from transfection of A549 cells in a 6 well plate, as described above.
Protein samples were diluted 1:1 in 2× Laemmli buffer with 5% 13-mercapto-ethanol and incubated at 95° C. for 5 minutes. 40-50 ug of protein was loaded in each lane of 10% Tris-HCl gel. One lane was designated for MagicMark Protein Standard (Invitrogen # LC5602). The gel was run at 100V for approximately 2 hours. Protein was transferred to a PVDF membrane at 100V for 60 minutes. Once the transfer was finished, the membrane was blocked in 1% Casein in PBS (BioRad Cat#161-0783) for 1 hour on a plate rocker at room temperature followed by the overnight incubation at 4° C. with mouse monoclonal anti-STAT6 primary antibody (BD Biosciences, cat#611291) diluted 1:500 in 1% Casein. On the next day, the blot was washed 4×5 minutes in PBST solution and incubated for 30 minutes at room temperature with goat anti-mouse secondary antibody (Pierce Biotechnology, cat#3 31430) diluted 1:20,000 in 1% Casein. Then, the blot was washed 4×5 minutes with PBST and incubated for 1 minute with ECL Western Blotting Substrate (Pierce Biotechnology, Cat#32106). The bands were visualized on the Bio-Rad VersaDoc Imager.
The protein bands were quantified by computing their density which is defined by the ratio between the total intensity of all pixels and the area of the rectangle drawn around each band (intensity/mm^2). The density was calculated by the BioRad software.
The level of protein was quantified using the Bio-Rad VersaDoc Imager according to the protocols of that piece of equipment. A pixel count was performed in each lane using an area of identical size. Each sample was then compared to the appropriate control treated sample and converted to a percent of protein remaining compared to control.
The effects of lead siNAs on STATE protein level were compared to the effects of the universal control using a two tail Student's T-test to obtain a P value. P<0.05 was considered significant.
The siNAs and control were tested were tested at doses of 30 nM, […]. Blots were then probed with a-STAT6 and α-tubulin antibodies. All samples were harvested 72 hours post-transfection. The ratios of the treatments were then compared to the ratio of the control group using an t-test assuming unequal variances.

Substance | % KD STAT4 1 nM [1] | Density (Intensity/mm^2), 3 pM, 72 h (STAT6 protein) | Density (Intensity/mm^2), 300 pM, 72 h (STAT6 protein) | Density (Intensity/mm^2), 30 nM, 72 h (STAT6 protein)
29990-DC: STAT6 siNA duplex; sense SEQ ID NO: 44, antisense SEQ ID NO: 45; target GUGAAAGCCUGGUGGACAU, site 954 (sense GUGAAAGCCUGGUGGACAUTT; antisense AUGUCCACCAGGCUUUCACUU; sense: DNA at AGT, 2'-fluoro at CU, [invAb] at 5' end, 3' end, backbone not given here; antisense: sugars from the 5' end rrrfffmffmmmfffffmfmm, backbone not given here) [STAT6 siNA duplex; target GUGAAAGCCUGGUGGACAU, site 954] | −2.1 ± 25.7% | 50078.4 ± 5978.2 Intensity/mm^2 | 6192.2 ± 714.5 Intensity/mm^2 | 1134.6 ± 362.7 Intensity/mm^2
30008-DC: STAT6 siNA duplex; sense SEQ ID NO: 80, antisense SEQ ID NO: 81; target CUGCUCUGCUCAGAUGUGA, site 2549 (sense CUGCUCUGCUCAGAUGUGATT; antisense UCACAUCUGAGCAGAGCAGUU; sense: DNA at AGT, 2'-fluoro at CU, [invAb] at 5' end, 3' end, backbone not given here; antisense: sugars from the 5' end rrrfmfffmmmfmmmmfmmmm, backbone not given here) [STAT6 siNA duplex; target CUGCUCUGCUCAGAUGUGA, site 2549] | 16.4 ± 17% | 58808.1 ± 5023.9 Intensity/mm^2 | 8356.8 ± 2186.6 Intensity/mm^2 | 4254 ± 1579.4 Intensity/mm^2
29997-DC: STAT6 siNA duplex; sense SEQ ID NO: 58, antisense SEQ ID NO: 59; target CUACCAUGGUGCCUUCUUA, site 2262 (sense CUACCAUGGUGCCUUCUUATT; antisense UAAGAAGGCACCAUGGUAGUU; sense: DNA at AGT, 2'-fluoro at CU, [invAb] at 5' end, 3' end, backbone not given here; antisense: sugars from the 5' end rrrmmmmmfmffmfmmfmmmm, backbone not given here) [STAT6 siNA duplex; target CUACCAUGGUGCCUUCUUA, site 2262] | 2.6 ± 25% | 49839.8 ± 2352.8 Intensity/mm^2 | 5732.4 ± 1189.0 Intensity/mm^2 | 3203.8 ± 1309.6 Intensity/mm^2
